The record followed here is US20260109694A1, “HETEROCYCLIC COMPOUNDS AND USES THEREOF” (Kumquat Biosciences Inc., priority 2023, published 2026).

One experiment deals with T1, PTPN2 (Homo sapiens, UniProt P17706).
T1 sequence (P17706 1-415): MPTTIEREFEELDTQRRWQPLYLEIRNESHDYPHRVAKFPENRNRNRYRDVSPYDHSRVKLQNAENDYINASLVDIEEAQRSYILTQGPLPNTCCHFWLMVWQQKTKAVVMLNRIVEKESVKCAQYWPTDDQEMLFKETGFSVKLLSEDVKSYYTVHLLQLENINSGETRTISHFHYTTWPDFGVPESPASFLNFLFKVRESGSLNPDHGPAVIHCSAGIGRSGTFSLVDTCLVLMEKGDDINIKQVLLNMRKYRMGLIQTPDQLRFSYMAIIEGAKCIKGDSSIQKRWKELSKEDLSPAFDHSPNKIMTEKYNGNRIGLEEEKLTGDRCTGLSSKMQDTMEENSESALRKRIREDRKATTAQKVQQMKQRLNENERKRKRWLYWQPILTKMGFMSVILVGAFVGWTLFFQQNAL
In words: Phosphatase activity assay (DiFMUP substrate). The experiment is classed as biochemical. Conditions: value bin printed in column head. The method, then:
(§1) The selectivity and potency of a small molecule PTPN2 inhibitor as provided herein against one or more protein tyrosine phosphatase (PTP) enzymes, and specifically against PTPN2, is assessed in various ways. The one or more PTP enzymes comprise Mycobacterium protein tyrosine phosphatase A (mPTPA), Mycobacterium protein tyrosine phosphatase B (mPTPB), PTPN1 (i.e., PTP1B), PTPN2 (i.e., TC-PTP), PTPN22 (i.e., LYP), SHP-1, SHP-2, FAP-1, Meg2, HePTP, Laforin, VHX, VHR, LMWPTP, Cdc14A, LAR, CD45, PTPRG, a fragment thereof, a variant thereof, and a combination thereof. Selectivity and potency of a small molecule PTPN2 inhibitor is evaluated using a PTP activity inhibition assay. The assay is performed using a buffer comprising 50 mM HEPES buffer pH 7.5, 150 mM NaCl, 0.5 mM EDTA, 1 mM DTT, 0.001% Tween-20.
(§2) The assay is performed using a phosphated substrate, e.g., 10 mM 6,8-Difluoro-4-Methylumbelliferyl Phosphate (DIFMUP) that is stored at −20° C. Alternatively or in addition to, the assay is performed using other phosphated substrate (e.g., fluorescein diphosphate). Each PTP enzyme is diluted in the assay buffer
(§3) The assay can be carried out at room temperature in multiplate format, e.g., using 384 well plates. A small molecule PTPN2 inhibitor dissolved in DMSO at one of 10 concentrations from a serial dilution or DMSO alone for control is added to each well. A mixture of the assay buffer comprising PTP enzyme (e.g., 0.025 ng/ul PTPN2) is added to each well and mixed for approximately 2 minutes. The reaction is initiated by adding DiFMUP diluted in the assay buffer to a final concentration of approximately 45 µM DiFMUP in PTPN2 assay. For each PTP enzyme, DiFMUP is added at the Km (Michaelis constant) of the enzyme that had been independently determined. The phosphatase activity of the PTP enzyme is assessed by monitoring appearance of a fluorescent product (6,8-difluoro-7-hydroxyl-4-coumarin (DiFMU) from DiFMUP) continuously for about 15 to 30 minutes, using the INFINITE M1000Pro plate reader (Tecan) with excitation at 360 nm and emission at 450 nm (cutoff filter at 435 nm) for DiFMU. Each assay is performed at least in duplicate. The rate (e.g., the initial rate) of DiFMU formation is plotted against the concentration of the small molecule PTPN2 inhibitor, and the data is fitted (e.g., using a 4-parameter equation) to determine the inflection point of the fit as the IC50 of the small molecule PTPN2 inhibitor for a specific enzyme. Utilizing this assay, the ability of the compounds in Table 1 to inhibit PTPN2 and PTP1B has been assessed. Table 3 summarizes the IC50 values.

Another experiment has as its target T2, PTP1B (Homo sapiens, UniProt P18031).
T2 sequence (P18031 1-435): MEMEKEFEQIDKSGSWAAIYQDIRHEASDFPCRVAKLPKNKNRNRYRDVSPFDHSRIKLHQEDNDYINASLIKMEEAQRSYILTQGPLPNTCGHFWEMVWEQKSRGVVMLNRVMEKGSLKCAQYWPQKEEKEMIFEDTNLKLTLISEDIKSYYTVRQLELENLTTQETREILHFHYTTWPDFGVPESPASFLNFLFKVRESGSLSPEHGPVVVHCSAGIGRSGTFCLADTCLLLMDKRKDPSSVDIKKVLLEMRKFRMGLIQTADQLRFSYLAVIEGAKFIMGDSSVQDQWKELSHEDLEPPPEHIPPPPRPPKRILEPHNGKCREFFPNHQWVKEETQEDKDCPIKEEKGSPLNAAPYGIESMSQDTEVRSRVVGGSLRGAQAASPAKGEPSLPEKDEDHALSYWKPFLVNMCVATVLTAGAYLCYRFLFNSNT
The experiment in a line: Phosphatase activity assay (DiFMUP substrate). Format: biochemical. Conditions: value bin printed in column head. The method, then:
as §1, §2, §3

The IC50 is the point on the concentration scale where inhibition reaches its midpoint. As to `CC(C)[C@@H](N)C(=O)NCC(=O)N1CC(c2ccc(O)c(N3CC(=O)NS3(=O)=O)c2F)=C[C@H]1CCC1CCC1` [Compound 149, (R)-2-amino-N-(2-((R)-2-(2-cyclobutylethyl)-4-(3-(1,1-dioxido-4-oxo-1,2,5-thiadiazolidin-2-yl)-2-fluoro-4-hydroxyphenyl)-2,5-dihydro-1H-pyrrol-1-yl)-2-oxoethyl)-3-methylbutanamide], the IC50 at PTPN2 and on PTP1B was ≤ 1000 nM each time.

As for `O=C1CN(c2c(O)ccc(C3=C[C@H](CCC4CCC4)NC3)c2F)S(=O)(=O)N1` [Compound 134, (S)-5-(3-(5-(2-cyclobutylethyl)-2,5-dihydro-1H-pyrrol-3-yl)-2-fluoro-6-hydroxyphenyl)-1,2,5-thiadiazolidin-3-one 1,1-dioxide], the IC50 at PTPN2 and at PTP1B was ≤ 1000 nM in each case.

As to `O=C1CN(c2c(O)cc(CC3CCNC3)cc2F)S(=O)(=O)N1` (stereo not shown) [Compound 140, 5-(2-fluoro-6-hydroxy-4-(pyrrolidin-3-ylmethyl)phenyl)-1,2,5-thiadiazolidin-3-one 1,1-dioxide], the half-inhibitory concentration (IC50) at PTPN2 and on PTP1B was ≤ 1000 nM in each case.

Take `CC(C)CC[C@H]1C=C(c2ccc(O)c(N3CC(=O)NS3(=O)=O)c2F)CN1C(=O)OC(OC(=O)[C@@H](N)C(C)C)C(C)C` (stereo partly drawn) [Compound 162, 1-((L-valyl)oxy)-2-methylpropyl (2S)-4-(3-(1,1-dioxido-4-oxo-1,2,5-thiadiazolidin-2-yl)-2-fluoro-4-hydroxyphenyl)-2-isopentyl-2,5-dihydro-1H-pyrrole-1-carboxylate]: the IC50 on PTPN2 and at PTP1B was ≤ 1000 nM each time.

Turning to `O=C1CN(c2c(O)ccc(C3=CCC(CO)C3)c2F)S(=O)(=O)N1` (stereo not shown) [Compound 135, 5-(2-fluoro-6-hydroxy-3-(4-(hydroxymethyl)cyclopent-1-en-1-yl)phenyl)-1,2,5-thiadiazolidin-3-one 1,1-dioxide], the IC50 at PTPN2 and at PTP1B was ≤ 1000 nM in each case.

On to `CC1=C(c2ccc(O)c(N3CC(=O)NS3(=O)=O)c2F)CNC1C` (stereo not shown) [Compound 118, 5-(3-(4,5-dimethyl-2,5-dihydro-1H-pyrrol-3-yl)-2-fluoro-6-hydroxyphenyl)-1,2,5-thiadiazolidin-3-one 1,1-dioxide], for which the 50% inhibitory concentration (IC50) on PTPN2 and at PTP1B was > 1000 nM in each case.

Consider `O=C1CN(c2c(O)ccc(C3=C[C@@H](CCC4CC4)NC3)c2F)S(=O)(=O)N1` [Compound 113, (R)-5-(3-(5-(2-cyclopropylethyl)-2,5-dihydro-1H-pyrrol-3-yl)-2-fluoro-6-hydroxyphenyl)-1,2,5-thiadiazolidin-3-one 1,1-dioxide], for which the IC50 at PTPN2 and on PTP1B was ≤ 1000 nM in each case.

As to `CC(OC(=O)C(C)C)OC(=O)N1CC(c2ccc(O)c(N3CC(=O)NS3(=O)=O)c2F)=C[C@H]1CCC1CC1` (mixture of isomers) [Compound 111, 1-(isobutyryloxy)ethyl (2R)-2-(2-cyclopropylethyl)-4-(3-(1,1-dioxido-4-oxo-1,2,5-thiadiazolidin-2-yl)-2-fluoro-4-hydroxyphenyl)-2,5-dihydro-1H-pyrrole-1-carboxylate], the IC50 on PTPN2 and on PTP1B was ≤ 1000 nM in each case.

With `NC1CCCC1c1ccc(O)c(N2CC(=O)NS2(=O)=O)c1F` (stereo not shown) [Compound 112, 5-(3-(2-aminocyclopentyl)-2-fluoro-6-hydroxyphenyl)-1,2,5-thiadiazolidin-3-one 1,1-dioxide], the IC50 on PTPN2 and on PTP1B was > 1000 nM each time.

For `CC(C)C(=O)OCOc1ccc(C2=C[C@@H](CCC3CCC3)NC2)c(F)c1N1CC(=O)NS1(=O)=O` [Compound 160, (R)-(4-(5-(2-cyclobutylethyl)-2,5-dihydro-1H-pyrrol-3-yl)-2-(1,1-dioxido-4-oxo-1,2,5-thiadiazolidin-2-yl)-3-fluorophenoxy)methyl isobutyrate], the IC50 at PTPN2 and at PTP1B was ≤ 1000 nM each time.

Regarding `CC(C)OC(=O)N1CC(c2ccc(O)c(N3CC(=O)NS3(=O)=O)c2F)=C[C@H]1CCC1CCC1` [Compound 166, isopropyl (R)-2-(2-cyclobutylethyl)-4-(3-(1,1-dioxido-4-oxo-1,2,5-thiadiazolidin-2-yl)-2-fluoro-4-hydroxyphenyl)-2,5-dihydro-1H-pyrrole-1-carboxylate], the IC50 at PTPN2 and on PTP1B was ≤ 1000 nM in each case.

With `CC(C)C(=O)O[C@H](C)OC(=O)N1CC(c2ccc(O)c(N3CC(=O)NS3(=O)=O)c2F)=C[C@@H]1CCC1CC1` [Compound 155, (S)-1-(isobutyryloxy)ethyl (S)-2-(2-cyclopropylethyl)-4-(3-(1,1-dioxido-4-oxo-1,2,5-thiadiazolidin-2-yl)-2-fluoro-4-hydroxyphenyl)-2,5-dihydro-1H-pyrrole-1-carboxylate], the IC50 at PTPN2 and at PTP1B was ≤ 1000 nM in each case.

`O=C1CN(c2c(O)ccc(C3=CC(CCCC(F)F)NC3)c2F)S(=O)(=O)N1` (stereo not shown) [Compound 137, 5-(3-(5-(4,4-difluorobutyl)-2,5-dihydro-1H-pyrrol-3-yl)-2-fluoro-6-hydroxyphenyl)-1,2,5-thiadiazolidin-3-one 1,1-dioxide]: the IC50 on PTPN2 and on PTP1B was ≤ 1000 nM in each case.

Turning to `O=C1CN(c2c(O)ccc(C3=CC(CCC4CCC4)NC3)c2F)S(=O)(=O)N1` (racemic) [Compound 106, 5-(3-(5-(2-cyclobutylethyl)-2,5-dihydro-1H-pyrrol-3-yl)-2-fluoro-6-hydroxyphenyl)-1,2,5-thiadiazolidin-3-one 1,1-dioxide], the IC50 at PTPN2 and at PTP1B was ≤ 1000 nM throughout.

As for `CC(C)CC[C@H]1C=C(c2ccc(O)c(N3CC(=O)NS3(=O)=O)c2F)CN1C(=O)OC(C)OC(=O)C1CCCC1` (stereo partly drawn) [Compound 153, 1-((cyclopentanecarbonyl)oxy)ethyl (2S)-4-(3-(1,1-dioxido-4-oxo-1,2,5-thiadiazolidin-2-yl)-2-fluoro-4-hydroxyphenyl)-2-isopentyl-2,5-dihydro-1H-pyrrole-1-carboxylate], the IC50 at PTPN2 and on PTP1B was > 1000 nM each time.

Take `O=C1CN(c2c(O)ccc(C3=C[C@H](CCC4CC4)NC3)c2F)S(=O)(=O)N1` [Compound 130, (S)-5-(3-(5-(2-cyclopropylethyl)-2,5-dihydro-1H-pyrrol-3-yl)-2-fluoro-6-hydroxyphenyl)-1,2,5-thiadiazolidin-3-one 1,1-dioxide]: the IC50 at PTPN2 and on PTP1B was ≤ 1000 nM each time.

`CC(C)C(=O)O[C@@H](C)OC(=O)N1CC(c2ccc(O)c(N3CC(=O)NS3(=O)=O)c2F)=C[C@@H]1CCC1CC1` [Compound 151, (R)-1-(isobutyryloxy)ethyl (S)-2-(2-cyclopropylethyl)-4-(3-(1,1-dioxido-4-oxo-1,2,5-thiadiazolidin-2-yl)-2-fluoro-4-hydroxyphenyl)-2,5-dihydro-1H-pyrrole-1-carboxylate]: the IC50 on PTPN2 and at PTP1B was ≤ 1000 nM in each case.
